Test results from ChEMBL document CHEMBL1157187, “Chemical synthesis of 2beta-amino-5alpha-androstane-3alpha,17beta-diol N-derivatives and their antiproliferative effect on HL-60 human leukemia cells” (Bioorg Med Chem, 2008).

Legend:
HL-60 [1] = test: Growth inhibition of human HL60 cells at 1 uM after 3 days; type: functional; conditions: HL-60, 72 h
HL-60 [2] = test: Growth inhibition of human HL60 cells at 10 uM after 3 days; type: functional; conditions: HL-60, 72 h

Row | SMILES | inhibition at 1 µM (HL-60 [1]) [%] | inhibition at 10 µM (HL-60 [2]) [%]
1 | CCCCCCN[C@H]1C[C@@]2(C)[C@@H](CC[C@@H]3[C@@H]2CC[C@]2(C)[C@@H](O)CC[C@@H]32)C[C@@H]1O | 0 | 6.9
2 | CCCN1CCN([C@H]2C[C@@]3(C)[C@@H](CC[C@@H]4[C@@H]3CC[C@]3(C)[C@@H](O)CC[C@@H]43)C[C@@H]2O)CC1 | 0 | 0
3 | C[C@]12C[C@H](N3CCCCCC3)[C@@H](O)C[C@@H]1CC[C@@H]1[C@@H]2CC[C@]2(C)[C@@H](O)CC[C@@H]12 | 0 | 3.4
4 | C[C@]12C[C@H](N3CCN(C(=O)c4ccccc4)CC3)[C@@H](O)C[C@@H]1CC[C@@H]1[C@@H]2CC[C@]2(C)[C@@H](O)CC[C@@H]12 | 0 | 11.4
5 | C[C@]12C[C@H](NCCCc3ccccc3)[C@@H](O)C[C@@H]1CC[C@@H]1[C@@H]2CC[C@]2(C)[C@@H](O)CC[C@@H]12 | 0.9 | 37.6
6 | C[C@]12C[C@H](N3CCOCC3)[C@@H](O)C[C@@H]1CC[C@@H]1[C@@H]2CC[C@]2(C)[C@@H](O)CC[C@@H]12 | 14.9 | 8.7
7 | C[C@]12C[C@H](NCCc3ccccc3)[C@@H](O)C[C@@H]1CC[C@@H]1[C@@H]2CC[C@]2(C)[C@@H](O)CC[C@@H]12 | 9.5 | 42.8
8 | CCCCCCCCCCCCN[C@H]1C[C@@]2(C)[C@@H](CC[C@@H]3[C@@H]2CC[C@]2(C)[C@@H](O)CC[C@@H]32)C[C@@H]1O | 0 | 92
9 | C[C@]12C[C@H](N3CCN(Cc4ccccc4)CC3)[C@@H](O)C[C@@H]1CC[C@@H]1[C@@H]2CC[C@]2(C)[C@@H](O)CC[C@@H]12 | 0 | 25.7
10 | CCCC(C)N1CCN([C@H]2C[C@@]3(C)[C@@H](CC[C@@H]4[C@@H]3CC[C@]3(C)[C@@H](O)CC[C@@H]43)C[C@@H]2O)CC1 (stereo partly specified) | 0 | 9.2
11 | CCCCCN[C@H]1C[C@@]2(C)[C@@H](CC[C@@H]3[C@@H]2CC[C@]2(C)[C@@H](O)CC[C@@H]32)C[C@@H]1O | 0 | 0
12 | C[C@]12C[C@H](N3CCCNCC3)[C@@H](O)C[C@@H]1CC[C@@H]1[C@@H]2CC[C@]2(C)[C@@H](O)CC[C@@H]12 | 1 | 21.4
13 | C[C@]12C[C@H](N3CCC(N4CCCCC4)CC3)[C@@H](O)C[C@@H]1CC[C@@H]1[C@@H]2CC[C@]2(C)[C@@H](O)CC[C@@H]12 | 0 | 77.8
14 | CC(C)CN1CCN([C@H]2C[C@@]3(C)[C@@H](CC[C@@H]4[C@@H]3CC[C@]3(C)[C@@H](O)CC[C@@H]43)C[C@@H]2O)CC1 | 0 | 5
15 | CCCCCCCCC(=O)N1CCN([C@H]2C[C@@]3(C)[C@@H](CC[C@@H]4[C@@H]3CC[C@]3(C)[C@@H](O)CC[C@@H]43)C[C@@H]2O)CC1 | 8.1 | 99
16 | CCC(C)(C)N[C@H]1C[C@@]2(C)[C@@H](CC[C@@H]3[C@@H]2CC[C@]2(C)[C@@H](O)CC[C@@H]32)C[C@@H]1O | 0 | 1.8
17 | CC(C)(C)N[C@H]1C[C@@]2(C)[C@@H](CC[C@@H]3[C@@H]2CC[C@]2(C)[C@@H](O)CC[C@@H]32)C[C@@H]1O | 0 | 0.5
18 | CCCCOCCCN[C@H]1C[C@@]2(C)[C@@H](CC[C@@H]3[C@@H]2CC[C@]2(C)[C@@H](O)CC[C@@H]32)C[C@@H]1O | 4.8 | 26.5
19 | CC(C)(C)CN[C@H]1C[C@@]2(C)[C@@H](CC[C@@H]3[C@@H]2CC[C@]2(C)[C@@H](O)CC[C@@H]32)C[C@@H]1O | 0 | 3.3
20 | C[C@]12C[C@H](N3CCN(Cc4ccc5c(c4)OCO5)CC3)[C@@H](O)C[C@@H]1CC[C@@H]1[C@@H]2CC[C@]2(C)[C@@H](O)CC[C@@H]12 | 0 | 26.1
21 | CCCCCCCCCCCCCCCCN[C@H]1C[C@@]2(C)[C@@H](CC[C@@H]3[C@@H]2CC[C@]2(C)[C@@H](O)CC[C@@H]32)C[C@@H]1O | 0 | 94.8
22 | CCN(CC)[C@H]1C[C@@]2(C)[C@@H](CC[C@@H]3[C@@H]2CC[C@]2(C)[C@@H](O)CC[C@@H]32)C[C@@H]1O | 0 | 6.7
23 | C[C@]12C[C@H](N3CCN(c4ccccn4)CC3)[C@@H](O)C[C@@H]1CC[C@@H]1[C@@H]2CC[C@]2(C)[C@@H](O)CC[C@@H]12 | 0 | 26.1
